Reference: patent US20240269292A1
Entries after “also recorded” stand apart in the source; their conditions may differ. Non-standard residues stand in square brackets, D forms with d. Residues, ends and D or L forms follow the SMILES beside them. *: point of attachment. Dmt = Cc1cc(O)cc(C)c1C[C@H](N)C(=O)O; X1 = CCCCCCCCCCCCCCCCCCO*

What was measured:
[1] = Accelerated in vitro release assay, methyl laurate dispersal medium; format: physicochemical
Excerpt: In all cases, all EY005 was rapidly released, in some cases within hours, and in all cases by day 3.

Albumin = Albumin (Homo sapiens, UniProt P02768); assay: Complexation of EY005-stearyl with complexation agent in methyl laurate, HPLC of pulled-down particulates and medium; format: binding; conditions: 1 hour
Method: As described herein, formation of drug-complex particulates in which the complexation agent has high avidity for the drug can be quantified and verified experimentally. For example, the MTT-prodrug EY005-stearyl was admixed with known quantities of selected individual complexation agents. The EY005-stearyl-complexation agent mixture was then added to an appropriate dispersal medium (in this case, methyl laurate), and centrifuged to “pull down” or separate EY005-stearyl bound to complexation agent from unbound prodrug present in the dispersal medium. HPLC analysis of pulled down particulates and dispersal medium from EY005-stearyl content determined the fraction of MTT-prodrug that is bound to the complexation agent and calculation of the Kd value, the unbound to bound coefficient, for the MTT-prodrug/complexation agent pair. […]
As described herein, formation of drug-complex particulates in which the complexation agent has high avidity for the drug can be quantified and verified experimentally. For example, the MTT-prodrug EY005-stearyl was admixed with known quantities of selected individual complexation agents. […]
Table 2 illustrates an example of a EY005-stearyl prodrug solubilized in methyl laurate in which various complexation agents were added, mixed, and incubated for 1 hour. The quantity of EY005-stearyl prodrug complexed with each complexation agent was determined by HPLC. […]

[2] = test system: retinal pigment epithelium (RPE) cells; assay: Actin cytoskeleton disorganization (phalloidin) in HQ-exposed RPE cells; format: cell-based; conditions: 5 μM
Method: (§1) Cells are then treated with drug (or control phosphate-buffered saline (PBS) solution) and assayed for effects on mitochondrial dysfunction and other cellular changes.
(§2) Mitochondrial dysfunction can be modeled using in vitro cell culture systems relevant to retinal disease. In one such system, retinal pigment epithelium (RPE) cells are cultured to post-confluence to establish a differentiated cell monolayer and are then assayed for mitochondrial dysfunction and effect of drugs for treatment of mitochondrial dysfunction (FIG. 5). In this model, mitochondrial dysfunction is induced by two exposures to nonlethal doses of hydroquinone (HQ) at day −3 and day 0. Hydroquinone (HQ), a well-known environmental toxicant ubiquitously present in Western lifestyle, is a biochemical inducer of mitochondrial dysfunction. […] Cells are then treated with a drug of interest (mitochondrial targeted peptide drug or a prodrug thereof) or control (phosphate-buffered saline (PBS) solution and assayed for effects on mitochondrial dysfunction, as measured by microscopy of flavoprotein autofluorescence (a measure of mitochondrial electron transport chain complex II decompensation) (FIG. 6).

[3] = test system: retinal pigment epithelium (RPE) cells; assay: HQ-induced mitochondrial dysfunction in RPE cells (flavoprotein autofluorescence); format: cell-based; conditions: HQ-exposed RPE cells, versus elamipretide or native EY005
Method: as §1, §2

carboxyesterase = assay: In vitro cleavage of the prodrug ester bond by carboxyesterase (HPLC); format: in vitro ADME; conditions: 37° C. in vitro, carboxyesterase 0.1 μg/mL
Method: One example of an EY005-prodrug includes EY005-stearyl (FIG. 16A), wherein EY005 is linked via ester bond to stearyl alcohol, one member from the group of long-chain saturated fatty alcohols. On cleavage of the ester bond, the prodrug EY005-stearyl releases the EY005 MTT. […] Upon addition of EY005-stearyl prodrug to phosphate-buffered saline solution at 37° C. without esterase, the ester bond of the EY005-stearyl prodrug cleaves more slowly (˜36 hours) by hydrolysis (FIGS. 17A and 17C).
EY005-stearyl was incubated at 37° C. in vitro with carboxyesterase (0.1 μg/mL), to simulate the ocular physiologic environment and the type of esterase that is readily abundant within the vitreous. […] Upon addition of EY005-stearyl prodrug to phosphate-buffered saline solution at 37° C. without esterase, the ester bond of the EY005-stearyl prodrug cleaves more slowly by hydrolysis (FIG. 17C).
FIG. 18 illustrates theoretical data from an in vitro esterase assay showing rapid ester cleavage of two different EY005 prodrugs upon exposure to the esterase.
One specific example of EY005-prodrug includes EY005-stearyl (depicted in FIG. 16A), wherein EY005 is linked via ester bond to stearyl alcohol, one member from the group of long-chain saturated fatty alcohols. On cleavage of the ester bond, the prodrug EY005-stearyl releases the EY005 MTT. […]

[4] = Complexation of EY005-stearyl with complexation agent in methyl laurate, HPLC of pulled-down particulates and medium; format: physicochemical; conditions: 1 hour
Method: As described herein, formation of drug-complex particulates in which the complexation agent has high avidity for the drug can be quantified and verified experimentally. For example, the MTT-prodrug EY005-stearyl was admixed with known quantities of selected individual complexation agents. The EY005-stearyl-complexation agent mixture was then added to an appropriate dispersal medium (in this case, methyl laurate), and centrifuged to “pull down” or separate EY005-stearyl bound to complexation agent from unbound prodrug present in the dispersal medium. HPLC analysis of pulled down particulates and dispersal medium from EY005-stearyl content determined the fraction of MTT-prodrug that is bound to the complexation agent and calculation of the Kd value, the unbound to bound coefficient, for the MTT-prodrug/complexation agent pair. Using this type of assay, Kd values can be generated to identify the unbound to bound drug ratio for specific MTT-prodrug/complexation agent pairs in a selected dispersal medium (see, e.g., Table 2, below).
As described herein, formation of drug-complex particulates in which the complexation agent has high avidity for the drug can be quantified and verified experimentally. For example, the MTT-prodrug EY005-stearyl was admixed with known quantities of selected individual complexation agents. […] HPLC analysis of pulled down particulates and dispersal medium from EY005-stearyl content determined the fraction of MTT-prodrug that is bound to the complexation agent (binding capacity) and calculation of the Kd value, the unbound to bound coefficient, for the MTT-prodrug/complexation agent pair. […]
Table 2 illustrates an example of a EY005-stearyl prodrug solubilized in methyl laurate in which various complexation agents were added, mixed, and incubated for 1 hour. The quantity of EY005-stearyl prodrug complexed with each complexation agent was determined by HPLC. Kd values were calculated as [unbound]/[bound] fraction prodrug under each condition. Binding capacity was calculated as the μg EY005-stearyl complexed per mg complexation agent.

[5] = Release assay of two formulations of EY005 prodrugs in the extended release system; format: physicochemical
Excerpt: FIG. 36 illustrates data from a release assay of two representative formulations of EY005 prodrugs in the extended-release drug delivery system, with different durations of release.
For example, FIG. 36 illustrates release kinetics for examples of two distinct formulations of EY005 prodrugs in the complexation-based XRDDS, each with different conjugation moieties, as described herein: EY005-octadecyl (formulation 1) and EY005-8-mer peptide (formulation 2).

[6] = Hydrophobicity and aqueous solubility; format: physicochemical
[7] = Ocular tissue levels of elamipretide in rabbits after subcutaneous or intravitreal administration; format: in vivo, rabbit
Method: For example, maximal systemic dosing of elamipretide is 40 mg daily delivered by subcutaneous route of administration, or approximately […]. […] Meanwhile, peak retina levels following intravitreal injection of 15 μg elamipretide is ˜15 μM. Thus, retinal bioavailability of mitochondrial-targeted peptides following systemic administration of a maximally tolerated dose is suboptimal as compared to intravitreal administration. […] The drug clears from the eye in just a few days, and once a week intravitreal injection in humans is not practical or feasible for treatment of disease in clinical practice. Thus, an extended release drug delivery system is essential to achieve sustained, high levels of drug within the vitreous, retina, and RPE.
Systemic delivery of mitochondrial targeted tetrapeptides by SQ injection have suboptimal efficacy in human patients due to insufficient retinal bioavailability. Sufficient levels of the mitochondrial-targeted tetrapeptides cannot be achieved at the target tissue site (i.e., retina). For example, in humans, maximal dosing is 40 mg SQ (˜0.3-0.9 mg/kg), a dose that is limited by SQ injection site toxicity (FIG. 3). In mice, effective dosing required 3 mg/kg, which is 3-10 fold greater than the mass-adjusted dose in humans. Peak plasma levels are also limited by the drug's rapid blood clearance, and the blood-eye barrier may also impede retinal penetration. […] Thus, higher retinal and choroidal drug levels with continuous drug exposure are desirable.

[8] = human, SQ; cited from earlier work
patients with dry AMD [9] = assay: ReCLAIM clinical trial in patients with dry AMD; format: in vivo, human; conditions: subcutaneous daily (40 mg)
Method: FIG. 3 illustrates summary results of the ReCLAIM study, a phase 1/2 clinical trial of systemically administered (40 mg subcutaneous daily) elamipretide in two cohorts of patients with dry AMD: 1) noncentral geographic atrophy (GA) and 2) high-risk drusen.

patients with dry AMD [10] = conditions: subcutaneous, once daily; limited by local injection site reactions; cited from earlier work
[11] = test system: sub-RPE deposits and visual function; assay: APOE4 + high fat diet (HFD) mouse model of dry AMD; format: in vivo; conditions: 3 mg/kg subcutaneous
Method: For example, FIG. 2A illustrates the reversal of pre-existing RPE mitochondrial dysfunction and sub-RPE deposits in an ApoE4 mouse model by high-dose elamipretide administered systemically by subcutaneous (SQ) administration (3 mg/kg […]). Aged ApoE4 mice fed a high-fat diet (HFD) develop sub-RPE deposits that reflect the pathobiology of subRPE drusen in patients with dry AMD. ApoE4 mice were treated with elamipretide (n=5; 3 mg/kg SQ daily) or vehicle (n=5) for 4 weeks, continuing HFD from prior 3 mos. […] These untreated mice had thick, severe deposits.

[12] = test system: retinal pigment epithelium (RPE) cells; conditions: preclinical in vitro models of dry AMD; cited from earlier work

Chain of Albumin (P02768 25-609, species assumed): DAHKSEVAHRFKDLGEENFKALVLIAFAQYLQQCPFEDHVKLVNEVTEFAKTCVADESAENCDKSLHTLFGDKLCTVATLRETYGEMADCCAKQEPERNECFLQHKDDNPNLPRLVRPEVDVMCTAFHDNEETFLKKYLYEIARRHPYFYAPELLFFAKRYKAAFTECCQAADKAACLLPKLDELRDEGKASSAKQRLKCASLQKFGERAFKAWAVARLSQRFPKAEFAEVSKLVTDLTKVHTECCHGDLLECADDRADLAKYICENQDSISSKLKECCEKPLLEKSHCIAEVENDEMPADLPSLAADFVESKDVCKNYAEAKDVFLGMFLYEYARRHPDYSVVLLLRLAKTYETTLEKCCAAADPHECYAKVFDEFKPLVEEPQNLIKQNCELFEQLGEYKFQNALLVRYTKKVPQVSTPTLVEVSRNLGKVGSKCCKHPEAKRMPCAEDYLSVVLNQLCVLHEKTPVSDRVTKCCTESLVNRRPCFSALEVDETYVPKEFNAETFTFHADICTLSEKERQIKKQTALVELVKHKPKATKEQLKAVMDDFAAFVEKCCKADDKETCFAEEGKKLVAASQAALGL

For `CCCCCCCCCCCCCCCCCCOC(=O)[C@H](Cc1ccccc1)NC(=O)[C@H](CCCCN)NC(=O)[C@H](Cc1c(C)cc(O)cc1C)NC(=O)[C@H](N)CCCNC(=N)N` [EY005-stearyl, H-d-Arg-DMT-Lys-Phe(-O)-octadecyl] (H-[dR][Dmt]KF-X1), the “Release rate of EY005” value ([1]; magnesium stearate and albumin together) was “intermediate between that of formulations using either complexation agent alone”, the “Release of EY005 into media” value ([1]; no complexation agent) was “rapid release” and the “Release of EY005 into media” value ([1]; silica microbeads) was “rapid release”. The “μg EY005-stearyl complexed per mg complexation agent” value (Albumin) was 4.5 μg per mg, the “Reversal of actin cytoskeleton disorganization” value [2] was “normalized actin cytoskeleton dysfunction” and the “Potency for reversal of mitochondrial dysfunction relative to comparator” value [3] was “efficacy equivalent to treatment with EY005 native peptide”. The “cleavage of the prodrug ester bond, releasing EY005” value (carboxyesterase) was “rapid cleavage of the prodrug ester bond”, the “μg EY005-stearyl complexed per mg complexation agent” value ([4]; Cyclodextrin gamma) was 2.3 μg per mg and the “μg EY005-stearyl complexed per mg complexation agent” value ([4]; Lecithin) was 9.5 μg per mg. The “μg EY005-stearyl complexed per mg complexation agent” value ([4]; Silica microbeads) was 0.2 μg per mg, the Release kinetics profile ([5]; FIG. 36) was “longer initial early burst” and the Durability of release ([5]; two-phase kinetics) was 120 days. For the same compound, the Hydrophobicity [6] was “hydrophobic”.

For `Cc1cc(O)cc(C)c1C[C@H](NC(=O)[C@H](N)CCCNC(=N)N)C(=O)N[C@@H](CCCCN)C(=O)N[C@@H](Cc1ccccc1)C(N)=O` [elamipretide, H-d-Arg-Dmt-Lys-Phe-NH2] (H-[dR][Dmt]KF-NH2), the “peak retina levels following intravitreal injection” value ([7]; intravitreal injection of 15 μg) was ~15 µM, the “choroid levels after 4 hours” value ([7]; rabbit, subcutaneous 1 mg/kg) was “undetectable” and the “drug in the retina after subcutaneous administration” value ([7]; rabbit, subcutaneous 1 mg/kg) was “no drug is detected in the retina”. For the same compound, the “peak choroid levels at 1 hour” value ([7]; rabbit, subcutaneous 1 mg/kg) was ~50 nM, the Dose-limiting toxicity [8] was “local injection site reactions” and the “Low-luminance visual acuity / visual function” value (patients with dry AMD [9]) was “general mean trend toward improvement in multiple metrics of visual function”. The “maximally tolerated dose in humans” value (patients with dry AMD [10]) was 40 mg, the “visual function (ERG B-wave amplitudes)” value [11] was “increased B-wave amplitudes; also recorded: partially improved visual function” and the “Reversal of mitochondrial dysfunction in RPE cell culture” value [12] was “potent for reversal of mitochondrial dysfunction”. The Aqueous solubility ([6]; native form) was “high aqueous solubility”.
